Experimental data reported in publication PMC10539501 (Nature Communications, 2023).
Starred links: 1 amine or outer side, 2 acyl side, 3 side chain; linkers in the order of their positions; H or OH if unused. Non-standard residues stand in square brackets, D forms with d. Residues, ends and D or L forms follow the SMILES beside them. X20 = C[C@H](NC(=S)[C@@H](C)N[*:1])C(=O)[*:2]; NMeY = CN[C@@H](Cc1ccc(O)cc1)C(=O)O; NMeL = CN[C@@H](CC(C)C)C(=O)O; dNMeL = CN[C@H](CC(C)C)C(=O)O

Columns and labels:
physchem = details: pH 7.4
in vitro [1] = details: both, human, plasma
pepsin = pepsin (Sus scrofa, UniProt P00791); test: in vitro; details: simulated gastric fluid, pH 1.2
pepsin, sequence (P00791 60-385): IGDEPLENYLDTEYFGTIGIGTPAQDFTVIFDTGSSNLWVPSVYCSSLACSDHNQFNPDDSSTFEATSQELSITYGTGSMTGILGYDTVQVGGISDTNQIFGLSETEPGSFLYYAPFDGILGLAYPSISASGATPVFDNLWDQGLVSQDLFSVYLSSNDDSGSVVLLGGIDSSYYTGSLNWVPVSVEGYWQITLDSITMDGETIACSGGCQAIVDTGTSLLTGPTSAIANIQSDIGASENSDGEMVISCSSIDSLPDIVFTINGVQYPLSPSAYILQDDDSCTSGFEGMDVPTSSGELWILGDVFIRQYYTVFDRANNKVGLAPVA

[2] = PAMPA passive permeability; assay type: in vitro ADME;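 further: passive permeability across an artificial membrane in 96-well pre-coated PAMPA plates, which lack transporters and efflux systems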
in vitro [3] = details: both, human, plasma; remark: listed apart in the source
in vitro [4] = details: human, microsomes
in vitro [5] = details: pig, simulated intestinal fluid
[6] = Octanol-water distribution coefficient (logD7.4); details: octanol/water, pH 7.4
in vitro [7] = assay type: in vitro ADME, human; details: human; for Papp A→B: Caco-2, Papp A-B avg
Caco-2 cells = test: in vitro; assay type: in vitro ADME, human; details: Caco-2
[8] = assay type: physicochemical
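Wherever Papp A-B + Elacridar avg is given: Caco-2 monolayers used 21 days after seeding in HBSS-HEPES buffer with 1% DMSO, donor and acceptor levels quantified by LC-MS/MS, TEER checked before and after.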
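Wherever Papp A-B avg (second block) is given: Caco-2 monolayers used 21 days after seeding in HBSS-HEPES buffer with 1% DMSO, donor and acceptor levels quantified by LC-MS/MS, TEER checked before and after.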
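Wherever Papp A-B set 1 (second block) is given: Caco-2 monolayers used 21 days after seeding in HBSS-HEPES buffer with 1% DMSO, donor and acceptor levels quantified by LC-MS/MS, TEER checked before and after.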
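Wherever Papp A-B set 2 (second block) is given: Caco-2 monolayers used 21 days after seeding in HBSS-HEPES buffer with 1% DMSO, donor and acceptor levels quantified by LC-MS/MS, TEER checked before and after.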

## CC(C)C[C@@H]1NC(=O)[C@@H](CC(C)C)N(C)C(=O)[C@H](CC(C)C)NC(=O)[C@H](Cc2ccc(O)cc2)NC(=O)[C@H]2CCCN2C(=O)[C@H](CC(C)C)NC1=O [10g] (cyclo(LL[dP]YL[dNMeL]))
physchem
  logD: 1.01
In vitro [1]
  half-life: 15 h
  remaining at 2 h: 92%
  remaining at 4 h: 83%
  remaining at 8 h: 69%
  remaining at 16 h: 51%
  remaining at 24 h: 28%
  remaining at 48 h: 22%
  remaining at 72 h: 13%
pepsin
  half-life: 0.325 h
  remaining at 2 min: 85%
  remaining at 10 min: 65%
  remaining at 20 min: 45%
  remaining at 0.5 h: 38%
  remaining at 1 h: 24%
  remaining at 2 h: 9%
  remaining at 4 h: 0%
  remaining at 8 h: 0%
  remaining at 12 h: 0%
Human liver microsomes
  Half lives: 16.8
[2]; Pe Avg
  Papp: 27.5 nm/s
In vitro [3]
  fraction unbound: 0.35
In vitro [4]
  microsomal CLint: 83 µL/min/mg
  remaining at 2 min: 89%
  remaining at 10 min: 67%
  remaining at 20 min: 41%
  remaining at 0.5 h: 25%
  remaining at 0.75 h: 16%
  remaining at 1 h: 8%
In vitro [5]
  half-life: 0.333 h
  remaining at 10 min: 67%
  remaining at 0.5 h: 41%
  remaining at 1 h: 22%
  remaining at 2 h: 10%
  remaining at 4 h: 0%
  remaining at 8 h: 0%
  remaining at 12 h: 0%

## C[C@@H]1NC(=O)[C@H](C)NC(=O)[C@H](C)NC(=S)[C@@H](C)NC(=O)[C@H](C)NC1=O [8a]
[6]
  logD: -0.32

## C[C@@H]1NC(=O)[C@H](C)NC(=O)[C@H](C)NC(=O)[C@@H](C)NC(=O)[C@H](C)NC(=O)[C@H](C)NC1=O [compound 9, cyclo(-D-Ala-L-Ala5-)]
[6]
  logD: -2.48

## C[C@@H]1NC(=O)[C@H](C)NC(=S)[C@H](C)NC(=O)[C@H](C)NC(=O)[C@@H](C)NC(=O)[C@H](C)NC1=O [9c]
[6]
  logD: -0.59

## C[C@H]1O[C@@H](O[C@H]2[C@@H](O)C[C@H](O[C@H]3[C@@H](O)C[C@H](O[C@H]4CC[C@@]5(C)[C@H](CC[C@@H]6[C@@H]5C[C@@H](O)[C@]5(C)[C@@H](C7=CC(=O)OC7)CC[C@]65O)C4)O[C@@H]3C)O[C@@H]2C)C[C@H](O)[C@@H]1O [Digoxin, reference compound]
In vitro [7]
  Papp A→B: 7.21 nm/s
In vitro [7]; Caco-2, Papp B-A avg
  Papp B→A: 295 nm/s
Caco-2 cells
  Papp A-B + Elacridar avg: 15 nm/s
  Papp A-B avg (second block): 7.2 nm/s
  Papp A-B set 1 (second block): 7.9 nm/s
  Papp A-B set 2 (second block): 6.5 nm/s
  Papp B-A + Elacridar avg: 62 nm/s
  Papp B-A avg (second block): 295 nm/s
  Papp B-A set 1 (second block): 285 nm/s
  Papp B-A set 2 (second block): 304 nm/s

## C[C@@H]1NC(=O)[C@H](C)NC(=S)[C@H](C)NC(=O)[C@@H](C)NC(=O)[C@H](C)NC1=O [8b]
[6]
  logD: -0.14

## C[C@@H]1NC(=O)[C@H](C)NC(=O)[C@H](C)NC(=S)[C@@H](C)NC(=O)[C@H](C)NC(=O)[C@H](C)NC1=O [9a] (cyclo([X20]AAAA))
[6]
  logD: -0.67

## C[C@@H]1NC(=O)[C@H](C)NC(=O)[C@@H](C)NC(=O)[C@H](C)NC(=O)[C@H](C)NC(=S)[C@H](C)NC1=O [9d]
[6]
  logD: -0.67

## C[C@@H]1NC(=O)[C@H](C)NC(=S)[C@H](C)NC(=O)[C@H](C)NC(=O)[C@@H](C)NC1=O [8c]
[6]
  logD: -0.19

## C[C@@H]1NC(=O)[C@H](C)NC(=O)[C@H](C)NC(=S)[C@H](C)NC(=O)[C@@H](C)NC(=O)[C@H](C)NC1=O [9b]
[6]
  logD: -0.7

## CC(C)C[C@@H]1NC(=O)[C@H](Cc2ccc(O)cc2)NC(=O)[C@H]2CCCN2C(=O)[C@H](CC(C)C)N(C)C(=O)[C@H](CC(C)C)NC(=O)[C@@H](CC(C)C)NC1=O [10i] (cyclo(L[NMeL][dP]YL[dL]))
physchem
  logD: 1.11
In vitro [1]
  half-life: 19 h
  remaining at 2 h: 92%
  remaining at 4 h: 83%
  remaining at 8 h: 74%
  remaining at 16 h: 58%
  remaining at 24 h: 38%
  remaining at 48 h: 26%
  remaining at 72 h: 4%
pepsin
  half-life: 0.292 h
  remaining at 2 min: 86%
  remaining at 10 min: 58%
  remaining at 20 min: 47%
  remaining at 0.5 h: 30%
  remaining at 1 h: 17%
  remaining at 2 h: 11%
  remaining at 4 h: 5%
  remaining at 8 h: 2.5%
  remaining at 12 h: 1%
Human liver microsomes
  Half lives: 12.6
[2]; Pe Avg
  Papp: 32 nm/s
In vitro [3]
  fraction unbound: 0.38
In vitro [4]
  microsomal CLint: 113 µL/min/mg
  remaining at 2 min: 93%
  remaining at 10 min: 54%
  remaining at 20 min: 53%
  remaining at 0.5 h: 19%
  remaining at 0.75 h: 12%
  remaining at 1 h: 2.73%
In vitro [5]
  half-life: 1.83 h
  remaining at 10 min: 90%
  remaining at 0.5 h: 81%
  remaining at 1 h: 68%
  remaining at 2 h: 46%
  remaining at 4 h: 32%
  remaining at 8 h: 6%
  remaining at 12 h: 3%

## C[C@@H]1NC(=O)[C@H](C)NC(=O)[C@@H](C)NC(=O)[C@H](C)NC(=S)[C@H](C)NC(=O)[C@H](C)NC1=O [9e]
[6]
  logD: -0.54

## CC(C)C[C@@H]1NC(=O)[C@@H](CC(C)C)NC(=O)[C@H](CC(C)C)NC(=O)[C@H](Cc2ccc(O)cc2)N(C)C(=O)[C@H]2CCCN2C(=O)[C@H](CC(C)C)NC1=O [10j] (cyclo(LL[dP][NMeY]L[dL]))
physchem
  logD: 0.98
In vitro [1]
  half-life: 11 h
  remaining at 2 h: 75%
  remaining at 4 h: 61%
  remaining at 8 h: 56%
  remaining at 16 h: 38%
  remaining at 24 h: 25%
  remaining at 48 h: 9%
  remaining at 72 h: 4%
pepsin
  half-life: 0.367 h
  remaining at 2 min: 86%
  remaining at 10 min: 78%
  remaining at 20 min: 59%
  remaining at 0.5 h: 32%
  remaining at 1 h: 10%
  remaining at 2 h: 1%
  remaining at 4 h: 0%
  remaining at 8 h: 0%
  remaining at 12 h: 0%
Human liver microsomes
  Half lives: 28.7
[2]; Pe Avg
  Papp: 45.9 nm/s
In vitro [3]
  fraction unbound: 0.21
In vitro [4]
  microsomal CLint: 49 µL/min/mg
  remaining at 2 min: 91%
  remaining at 10 min: 77%
  remaining at 20 min: 73%
  remaining at 0.5 h: 46%
  remaining at 0.75 h: 35%
  remaining at 1 h: 9%
In vitro [5]
  half-life: 0.583 h
  remaining at 10 min: 70%
  remaining at 0.5 h: 58%
  remaining at 1 h: 38%
  remaining at 2 h: 21%
  remaining at 4 h: 4.54%
  remaining at 8 h: 0.525%
  remaining at 12 h: 0%

## C[C@@H]1NC(=O)[C@H](C)NC(=O)[C@@H](C)NC(=S)[C@H](C)NC(=O)[C@H](C)NC1=O [8e]
[6]
  logD: -0.14

## C[C@@H]1NC(=O)[C@H](C)NC(=O)[C@H](C)NC(=O)[C@@H](C)NC(=S)[C@H](C)NC(=O)[C@H](C)NC1=O [9f]
[6]
  logD: -0.24

## CC(C)NCC(O)COc1cccc2ccccc12 (centres unmarked) [Propranolol, reference compound]
In vitro [7]
  Papp A→B: 166 nm/s
Caco-2 cells
  Papp A-B avg (second block): 166 nm/s
  Papp A-B set 1 (second block): 172.8 nm/s
  Papp A-B set 2 (second block): 158.7 nm/s
  Papp B-A avg (second block): 341 nm/s
  Papp B-A set 1 (second block): 376 nm/s
  Papp B-A set 2 (second block): 307 nm/s

## C[C@@H]1NC(=O)[C@H](C)NC(=O)[C@@H](C)NC(=O)[C@H](C)NC(=S)[C@H](C)NC1=O [8d]
[6]
  logD: -0.23

## C[C@@H](O)[C@@H]1NC(=O)[C@H](CCCCN)NC(=O)[C@@H](Cc2c[nH]c3ccccc23)NC(=S)[C@H](Cc2ccccc2)NC(=O)[C@@H]2CCCN2C(=O)[C@H](Cc2ccccc2)NC1=O [13f]
physchem
  logD: -0.93
In vitro [1]
  half-life: 16 h
[2]; Pe
  Papp: 15.1 nm/s
In vitro [3]
  fraction unbound: 0.05
[8]
  logD heptane ethylene glycol: -0.91

## C[C@@H]1NC(=O)[C@H](C)NC(=O)[C@H](C)NC(=O)[C@@H](C)NC(=O)[C@H](C)NC1=O [compound 8, cyclo(-D-Ala-L-Ala4-)]
[6]
  logD: -1.46
